Results as given in patent US12077503B2, “Substituted cyclic amides and their use as herbicides” (FMC CORPORATION, priority 2015, dated 2024).

Legend:
Format in all cases: in vivo
[1] = tested on: sedge, umbrella (small-flower umbrella sedge, Cyperus difformis); experiment: Test B flooded paddy test; settings: Cyperus difformis, 360 h, Flood, 250 g ai/ha; visually evaluated after 13 to 15 d; read-out: Plant response rating, Sedge, Umbrella (0 to 100 scale where 0 is no effect and 100 is complete control)
How it was run: (§1)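 Rating scale 0–100 (visual, vs untreated controls) after a 13–15 d greenhouse period; application to the flood layer, 3 cm above soil and maintained; plants at 2-leaf stage when treated.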

[2] = tested on: ducksalad (Heteranthera limosa); experiment: Test B flooded paddy test; settings: Heteranthera limosa, 360 h, Flood, 250 g ai/ha; visually evaluated after 13 to 15 d; read-out: Plant response rating, Ducksalad (0 to 100 scale where 0 is no effect and 100 is complete control)
How it was run: as §1

[3] = tested on: barnyardgrass (Echinochloa crus-galli); experiment: Test B flooded paddy test; settings: Echinochloa crus-galli, 360 h, Flood, 250 g ai/ha; visually evaluated after 13 to 15 d; read-out: Plant response rating, Barnyardgrass (0 to 100 scale where 0 is no effect and 100 is complete control)
How it was run: as §1

rice (Oryra sativa) = experiment: Test B flooded paddy test; settings: Oryza sativa, 360 h, Flood, 250 g ai/ha; visually evaluated after 13 to 15 d; read-out: Plant response rating, Rice (0 to 100 scale where 0 is no effect and 100 is complete control)
How it was run: as §1

[4] = tested on: pigweed (Amaranthus retroflexus); experiment: Test A preemergence; settings: Amaranthus retroflexus, pre-emergence, 240 h, Preemergence; for pest or weed control at 31 g/ha: 31 g ai/ha, 0 to 100 scale where 0 is no effect and 100 is complete control, read-out: Pigweed plant response rating; for pest or weed control at 125 g/ha: 125 g ai/ha, 0 to 100 scale (0 no effect, 100 complete control), read-out: Plant response rating, Pigweed
[5] = tested on: ragweed (common ragweed, Ambrosia elatior); experiment: Test A preemergence; settings: Ambrosia artemisiifolia, pre-emergence, 240 h, Preemergence; for pest or weed control at 31 g/ha: 31 g ai/ha, 0 to 100 scale where 0 is no effect and 100 is complete control, read-out: Ragweed plant response rating; for pest or weed control at 125 g/ha: 125 g ai/ha, 0 to 100 scale (0 no effect, 100 complete control), read-out: Plant response rating, Ragweed
How it was run: (§2)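 Preemergence soil spray on seeded pots or post-emergence spray on 1–2 leaf plants, in loam–sand blend. Greenhouse ~10 d. Visual rating 0–100 against untreated plants.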

[6] = tested on: barnyardgrass (Echinochloa crus-galli); experiment: Test A preemergence; settings: Echinochloa crus-galli, pre-emergence, 240 h, Preemergence; for pest or weed control at 31 g/ha: 31 g ai/ha, 0 to 100 scale where 0 is no effect and 100 is complete control, read-out: Barnyardgrass plant response rating; for pest or weed control at 125 g/ha: 125 g ai/ha, 0 to 100 scale (0 no effect, 100 complete control), read-out: Plant response rating, Barnyardgrass
How it was run: as §2

[7] = tested on: giant foxtail (Setaria faberii); experiment: Test A preemergence; settings: Setaria faberi, pre-emergence, 240 h, Preemergence; for pest or weed control at 31 g/ha: 31 g ai/ha, 0 to 100 scale where 0 is no effect and 100 is complete control, read-out: Foxtail, Giant plant response rating; for pest or weed control at 125 g/ha: 125 g ai/ha, 0 to 100 scale (0 no effect, 100 complete control), read-out: Plant response rating, Foxtail, Giant
How it was run: as §2

Kochia (Kochia scoparia) [8] = experiment: Test A preemergence; settings: Bassia scoparia, pre-emergence, 240 h, Preemergence; for pest or weed control at 31 g/ha: 31 g ai/ha, 0 to 100 scale where 0 is no effect and 100 is complete control, read-out: Kochia plant response rating; for pest or weed control at 125 g/ha: 125 g ai/ha, 0 to 100 scale (0 no effect, 100 complete control), read-out: Plant response rating, Kochia
How it was run: as §2

[9] = tested on: ryegrass, Italian (Italian ryegrass, Lolium multiflorum); experiment: Test A preemergence; settings: Lolium multiflorum, pre-emergence, 240 h, Preemergence; for pest or weed control at 31 g/ha: 31 g ai/ha, 0 to 100 scale where 0 is no effect and 100 is complete control, read-out: Ryegrass, Italian plant response rating; for pest or weed control at 125 g/ha: 125 g ai/ha, 0 to 100 scale (0 no effect, 100 complete control), read-out: Plant response rating, Ryegrass, Italian
How it was run: as §2

corn (Zea mays) = experiment: Test A postemergence; settings: Zea mays, post-emergence, 240 h, Postemergence, read-out: Corn plant response rating (0 to 100 scale); for plant injury at 125 g/ha: 125 g ai/ha, visual rating about 10 d after treatment; for plant injury at 31 g/ha: 31 g ai/ha, 0 is no effect, 100 is complete control
How it was run: as §2

[10] = tested on: wheat (Triticum aestivum); experiment: Test A postemergence; settings: Triticum aestivum, post-emergence, 240 h, Postemergence, read-out: Wheat plant response rating (0 to 100 scale); for plant injury at 125 g/ha: 125 g ai/ha, visual rating about 10 d after treatment; for plant injury at 31 g/ha: 31 g ai/ha, 0 is no effect, 100 is complete control
How it was run: as §2

[11] = tested on: blackgrass (Alopecurus myosuroides); experiment: Test A postemergence; settings: Alopecurus myosuroides, post-emergence, 240 h, Postemergence, read-out: Blackgrass plant response rating (0 to 100 scale); for pest or weed control at 125 g/ha: 125 g ai/ha, visual rating about 10 d after treatment; for pest or weed control at 31 g/ha: 31 g ai/ha, 0 is no effect, 100 is complete control
How it was run: as §2

[12] = tested on: pigweed (Amaranthus retroflexus); experiment: Test A postemergence; settings: Amaranthus retroflexus, post-emergence, 240 h, Postemergence, read-out: Pigweed plant response rating (0 to 100 scale); for pest or weed control at 125 g/ha: 125 g ai/ha, visual rating about 10 d after treatment; for pest or weed control at 31 g/ha: 31 g ai/ha, 0 is no effect, 100 is complete control
How it was run: as §2

[13] = tested on: ragweed (common ragweed, Ambrosia elatior); experiment: Test A postemergence; settings: Ambrosia artemisiifolia, post-emergence, 240 h, Postemergence, read-out: Ragweed plant response rating (0 to 100 scale); for pest or weed control at 125 g/ha: 125 g ai/ha, visual rating about 10 d after treatment; for pest or weed control at 31 g/ha: 31 g ai/ha, 0 is no effect, 100 is complete control
How it was run: as §2

[14] = tested on: barnyardgrass (Echinochloa crus-galli); experiment: Test A postemergence; settings: Echinochloa crus-galli, post-emergence, 240 h, Postemergence; for pest or weed control at 125 g/ha: 125 g ai/ha, visual rating about 10 d after treatment, read-out: Barnyardgrass plant response rating (0 to 100 scale, 0 no effect, 100 complete control); for pest or weed control at 31 g/ha: 31 g ai/ha, 0 is no effect, 100 is complete control, read-out: Barnyardgrass plant response rating (0 to 100 scale)
How it was run: as §2

[15] = tested on: giant foxtail (Setaria faberii); experiment: Test A postemergence; settings: Setaria faberi, post-emergence, 240 h, Postemergence, read-out: Foxtail, Giant plant response rating (0 to 100 scale); for pest or weed control at 125 g/ha: 125 g ai/ha, visual rating about 10 d after treatment; for pest or weed control at 31 g/ha: 31 g ai/ha, 0 is no effect, 100 is complete control
How it was run: as §2

Kochia (Kochia scoparia) [16] = experiment: Test A postemergence; settings: Bassia scoparia, post-emergence, 240 h, Postemergence, read-out: Kochia plant response rating (0 to 100 scale); for pest or weed control at 125 g/ha: 125 g ai/ha, visual rating about 10 d after treatment; for pest or weed control at 31 g/ha: 31 g ai/ha, 0 is no effect, 100 is complete control
How it was run: as §2

[17] = tested on: ryegrass, Italian (Italian ryegrass, Lolium multiflorum); experiment: Test A postemergence; settings: Lolium multiflorum, post-emergence, 240 h, Postemergence, read-out: Ryegrass, Italian plant response rating (0 to 100 scale); for pest or weed control at 125 g/ha: 125 g ai/ha, visual rating about 10 d after treatment; for pest or weed control at 31 g/ha: 31 g ai/ha, 0 is no effect, 100 is complete control
How it was run: as §2

Row | Structure (SMILES) | pest or weed control at 250 g/ha [1] | pest or weed control at 250 g/ha [2] | pest or weed control at 250 g/ha [3] | pest or weed control at 250 g/ha (rice (Oryra sativa)) | pest or weed control at 31 g/ha [4] | pest or weed control at 125 g/ha [4] | pest or weed control at 31 g/ha [5] | pest or weed control at 125 g/ha [5] | pest or weed control at 31 g/ha [6] | pest or weed control at 125 g/ha [6] | pest or weed control at 31 g/ha [7] | pest or weed control at 125 g/ha [7] | pest or weed control at 31 g/ha (Kochia (Kochia scoparia) [8]) | pest or weed control at 125 g/ha (Kochia (Kochia scoparia) [8]) | pest or weed control at 31 g/ha [9] | pest or weed control at 125 g/ha [9] | plant injury at 125 g/ha (corn (Zea mays)) | plant injury at 31 g/ha (corn (Zea mays)) | plant injury at 125 g/ha [10] | plant injury at 31 g/ha [10] | further results
1 | COc1ccc([C@H]2CNC(=O)[C@@H]2C(=O)Nc2cccc(F)c2F)cc1 [Compound 1341] | 0% | 90% | 30% | 0% | 0% | 0% | 20% | 0% | 0% | 60% | 10% | 70% | 30% | 0% | 0% | 0% | 0% | 0% | 0% | 0% | pest or weed control at 125 g/ha [11]: 0%; pest or weed control at 31 g/ha [11]: 0%; pest or weed control at 125 g/ha [12]: 0%; pest or weed control at 31 g/ha [12]: 0%; pest or weed control at 125 g/ha [13]: 0%; pest or weed control at 31 g/ha [13]: 0%; pest or weed control at 125 g/ha [14]: 90%; pest or weed control at 31 g/ha [14]: 40%; pest or weed control at 125 g/ha [15]: 0%; pest or weed control at 31 g/ha [15]: 0%; pest or weed control at 125 g/ha (Kochia (Kochia scoparia) [16]): 0%; pest or weed control at 31 g/ha (Kochia (Kochia scoparia) [16]): 0%; pest or weed control at 125 g/ha [17]: 0%; pest or weed control at 31 g/ha [17]: 0%
2 | COc1ccc([C@H]2CN(C)C(=O)[C@@H]2C(=O)Nc2cccc(F)c2F)cc1 [Compound 1343] | 0% | 98% | 95% | 0% | 0% | 30% | 90% | 0% | 90% | 90% | 100% | 100% | 0% | 40% | 0% | 30% | 0% | 0% | 30% | 0% | pest or weed control at 125 g/ha [11]: 0%; pest or weed control at 31 g/ha [11]: 0%; pest or weed control at 125 g/ha [12]: 0%; pest or weed control at 31 g/ha [12]: 0%; pest or weed control at 125 g/ha [13]: 30%; pest or weed control at 31 g/ha [13]: 0%; pest or weed control at 125 g/ha [14]: 90%; pest or weed control at 31 g/ha [14]: 60%; pest or weed control at 125 g/ha [15]: 90%; pest or weed control at 31 g/ha [15]: 60%; pest or weed control at 125 g/ha (Kochia (Kochia scoparia) [16]): 50%; pest or weed control at 31 g/ha (Kochia (Kochia scoparia) [16]): 0%; pest or weed control at 125 g/ha [17]: 20%; pest or weed control at 31 g/ha [17]: 0%
3 | CN1C[C@H](c2ccc3c(c2)OC(F)(F)O3)[C@@H](C(=O)Nc2ccc(F)nc2F)C1=O [Compound 1350] | 0% | 90% | 90% | 0% | 70% | 90% | 50% | 80% | 90% | 90% | 100% | 100% | 30% | 70% | 30% | 30% | 50% | 30% | 50% | 20% | pest or weed control at 125 g/ha [11]: 50%; pest or weed control at 31 g/ha [11]: 0%; pest or weed control at 125 g/ha [12]: 70%; pest or weed control at 31 g/ha [12]: 30%; pest or weed control at 125 g/ha [13]: 60%; pest or weed control at 31 g/ha [13]: 0%; pest or weed control at 125 g/ha [14]: 90%; pest or weed control at 31 g/ha [14]: 60%; pest or weed control at 125 g/ha [15]: 90%; pest or weed control at 31 g/ha [15]: 70%; pest or weed control at 125 g/ha (Kochia (Kochia scoparia) [16]): 70%; pest or weed control at 31 g/ha (Kochia (Kochia scoparia) [16]): 50%; pest or weed control at 125 g/ha [17]: 20%; pest or weed control at 31 g/ha [17]: 20%
